Reference: US8008487B2, “Substituted thieno[2,3-D]pyrimidines as fungicides” (priority 2004, dated 2011)

Experiments:
Cochliobolus sativus = assay: Spot Blotch of Wheat (COCHSA), whole-plant fungicide test; type: in vivo; details: Bipolaris sorokiniana, foliar, 24 h, 200 ppm on foliage, one-day protectant test, read-out: COCHSA percent control of disease
Summary of the method: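 Wheat seedlings (3-8 per pot) sprayed to wet with compound at 200 ppm (sometimes 100, 75 or 8.3 ppm) in 10% acetone/Triton X100 water, ~1500 L/ha. Inoculated with C. sativus spores next day (1DP) or two days before spraying (2DC), held humid 1-2 days, then greenhouse; disease severity converted to percent control versus untreated inoculated plants.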

Colletotricum lagenarium = assay: Cucumber Anthracnose (COLLLA), whole-plant fungicide test; type: in vivo; details: Cucumis sativus, foliar, 24 h, 200 ppm on foliage, one-day protectant test, read-out: COLLLA percent control of disease
Erysiphe cichoracaerum = assay: Cucumber Powdery Mildew (ERYSCI), whole-plant fungicide test; type: in vivo; details: 200 ppm on foliage, one-day protectant test; for pest or weed control at 200 ppm: Erysiphe, foliar, 24 h, read-out: ERYSCI percent control of disease
[1] = test system: Erysiphe graminis f. sp. tritici; assay: Powdery Mildew of Wheat (ERYSGT), whole-plant fungicide test; type: in vivo; details: Blumeria graminis, foliar, 24 h, 200 ppm on foliage, one-day protectant test, read-out: ERYSGT percent control of disease
Leptosphaeria nodorum = assay: Glume Blotch of Wheat (LEPTNO), whole-plant fungicide test; type: in vivo; details: Parastagonospora nodorum, foliar, 24 h, 200 ppm on foliage, one-day protectant test, read-out: LEPTNO percent control of disease
Phytophthora infestans = assay: whole plant or invertebrate; type: in vivo; details: Phytophthora infestans, in Solanum lycopersicum, foliar, 24 h, read-out: PHYTIN percent control of disease, 200 ppm on foliage, tomato, one-day protectant test
[2] = test system: Puccinia recondita tritici; assay: Leaf Rust of Wheat (PUCCRT), whole-plant fungicide test; type: in vivo; details: 200 ppm on foliage, one-day protectant test; for pest or weed control at 200 ppm: Puccinia recondita, foliar, 24 h, read-out: PUCCRT percent control of disease
Magnaporthe grisea = assay: whole plant or invertebrate; type: in vivo; details: for pest or weed control at 200 ppm: Pyricularia oryzae, in Oryza sativa, foliar, 24 h, read-out: PYRIOR percent control of disease, 200 ppm on foliage, rice, one-day protectant test
Septoria tritici = assay: Speckled Leaf Blotch of Wheat (SEPTTR), whole-plant fungicide test; type: in vivo; details: Zymoseptoria tritici, foliar, 24 h, 200 ppm on foliage, one-day protectant test, read-out: SEPTTR percent control of disease

For OCC(Nc1ncnc2scc(Cl)c12)c1ccccc1 (centres unmarked) [Compound 30], the pest or weed control at 200 ppm (Cochliobolus sativus) was 0 to 49%, the pest or weed control at 200 ppm (Colletotricum lagenarium) was 0 to 49% and the “ERYSCI percent control of disease” value (Erysiphe cichoracaerum) was “*** (*** is 80-100 percent control of disease)”. It also gave a pest or weed control at 200 ppm [1] of 0 to 49%, a pest or weed control at 200 ppm (Leptosphaeria nodorum) of 0 to 49% and a pest or weed control at 200 ppm (Phytophthora infestans) of 0 to 49%. The “PUCCRT percent control of disease” value [2] was “*** (*** is 80-100 percent control of disease)”, the “PYRIOR percent control of disease” value (Magnaporthe grisea; 200 ppm on foliage, rice, one-day protectant test) was “*** (*** is 80-100 percent control of disease)” and the pest or weed control at 200 ppm (Septoria tritici) was 0 to 49%. The melting point was 120 °C.

For OCC(Cc1ccccc1)Nc1ncnc2scc(Cl)c12 (centres unmarked) [Compound 31], the pest or weed control at 200 ppm (Cochliobolus sativus) was 0 to 49%, the pest or weed control at 200 ppm (Colletotricum lagenarium) was 0 to 49% and the pest or weed control at 200 ppm (Erysiphe cichoracaerum) was 80 to 100%. For the same compound, the pest or weed control at 200 ppm [1] was 0 to 49%, the pest or weed control at 200 ppm (Leptosphaeria nodorum) was 0 to 49% and the pest or weed control at 200 ppm (Phytophthora infestans) was 80 to 100%. For the same compound, the pest or weed control at 200 ppm [2] was 80 to 100%, the pest or weed control at 200 ppm (Magnaporthe grisea) was 80 to 100% and the pest or weed control at 200 ppm (Septoria tritici) was 0 to 49%. The melting point was 104 to 105 °C.

Compound O[C@@H](CNc1ncnc2scc(Cl)c12)c1ccccc1 [Compound 32] has a pest or weed control at 200 ppm (Cochliobolus sativus) of 0 to 49%, a pest or weed control at 200 ppm (Colletotricum lagenarium) of 0 to 49% and a pest or weed control at 200 ppm (Erysiphe cichoracaerum) of 0 to 49%. It also gave a pest or weed control at 200 ppm [1] of 0 to 49%, a pest or weed control at 200 ppm (Leptosphaeria nodorum) of 0 to 49% and a pest or weed control at 200 ppm (Phytophthora infestans) of 0 to 49%. For the same compound, the pest or weed control at 200 ppm [2] was 80 to 100%, the pest or weed control at 200 ppm (Magnaporthe grisea) was 80 to 100% and the pest or weed control at 200 ppm (Septoria tritici) was 0 to 49%. It also gave a melting point of 111 to 112 °C.

CC(COc1ccccn1)Nc1ncnc2scc(Cl)c12 (centres unmarked) [Compound 37, 5-(chlorothieno[2,3-d]pyrimidin-4-yl)-[1-methyl-2-(pyridin-2-yloxy)ethyl]amine] showed a pest or weed control at 200 ppm (Cochliobolus sativus) of 0 to 49%, a pest or weed control at 200 ppm (Colletotricum lagenarium) of 0 to 49% and a pest or weed control at 200 ppm (Erysiphe cichoracaerum) of 80 to 100%. For the same compound, the pest or weed control at 200 ppm [1] was 50 to 79%, the pest or weed control at 200 ppm (Leptosphaeria nodorum) was 80 to 100% and the pest or weed control at 200 ppm (Phytophthora infestans) was 0 to 49%. It also gave a pest or weed control at 200 ppm [2] of 80 to 100%, a pest or weed control at 200 ppm (Magnaporthe grisea) of 80 to 100% and a pest or weed control at 200 ppm (Septoria tritici) of 0 to 49%.

CC(Nc1ncnc2scc(Cl)c12)c1ccc(OCC(F)(F)F)nc1 (centres unmarked) [Compound 38] gave a pest or weed control at 200 ppm (Cochliobolus sativus) of 0 to 49%, a pest or weed control at 200 ppm (Colletotricum lagenarium) of 0 to 49% and a pest or weed control at 200 ppm (Erysiphe cichoracaerum) of 80 to 100%. It also gave a pest or weed control at 200 ppm [1] of 80 to 100%, a pest or weed control at 200 ppm (Leptosphaeria nodorum) of 50 to 79% and a pest or weed control at 200 ppm (Phytophthora infestans) of 80 to 100%. The pest or weed control at 200 ppm [2] was 80 to 100%, the pest or weed control at 200 ppm (Magnaporthe grisea) was 80 to 100% and the pest or weed control at 200 ppm (Septoria tritici) was 50 to 79%.

With CCOc1ccc(C(C)Nc2ncnc3scc(Cl)c23)cn1 (centres unmarked) [Compound 39] the pest or weed control at 200 ppm (Cochliobolus sativus) was 0 to 49%, the pest or weed control at 200 ppm (Colletotricum lagenarium) was 0 to 49% and the pest or weed control at 200 ppm (Erysiphe cichoracaerum) was 80 to 100%. For the same compound, the pest or weed control at 200 ppm [1] was 80 to 100%, the pest or weed control at 200 ppm (Leptosphaeria nodorum) was 80 to 100% and the pest or weed control at 200 ppm (Phytophthora infestans) was 50 to 79%. The pest or weed control at 200 ppm [2] was 80 to 100%, the pest or weed control at 200 ppm (Magnaporthe grisea) was 80 to 100% and the pest or weed control at 200 ppm (Septoria tritici) was 80 to 100%.

For CC(Nc1ncnc2scc(Cl)c12)c1nc2ccccc2s1 (centres unmarked) [Compound 41], the pest or weed control at 200 ppm (Cochliobolus sativus) was 50 to 79%, the pest or weed control at 200 ppm (Colletotricum lagenarium) was 0 to 49% and the pest or weed control at 200 ppm (Erysiphe cichoracaerum) was 80 to 100%. The pest or weed control at 200 ppm [1] was 80 to 100%, the pest or weed control at 200 ppm (Leptosphaeria nodorum) was 80 to 100% and the pest or weed control at 200 ppm (Phytophthora infestans) was 80 to 100%. For the same compound, the pest or weed control at 200 ppm [2] was 80 to 100%, the pest or weed control at 200 ppm (Magnaporthe grisea) was 80 to 100% and the pest or weed control at 200 ppm (Septoria tritici) was 80 to 100%.

CSc1ccc(C(C)Nc2ncnc3scc(Cl)c23)cc1 (centres unmarked) [Compound 42] gave a pest or weed control at 200 ppm (Cochliobolus sativus) of 0 to 49%, a pest or weed control at 200 ppm (Colletotricum lagenarium) of 0 to 49% and a pest or weed control at 200 ppm (Erysiphe cichoracaerum) of 80 to 100%. The pest or weed control at 200 ppm [1] was 50 to 79%, the pest or weed control at 200 ppm (Leptosphaeria nodorum) was 50 to 79% and the pest or weed control at 200 ppm (Phytophthora infestans) was 0 to 49%. The pest or weed control at 200 ppm [2] was 80 to 100%, the pest or weed control at 200 ppm (Magnaporthe grisea) was 80 to 100% and the pest or weed control at 200 ppm (Septoria tritici) was 80 to 100%.

Compound CC(Nc1ncnc2scc(Cl)c12)c1ccc(C(F)(F)F)nc1 (centres unmarked) [Compound 44] has a pest or weed control at 200 ppm (Cochliobolus sativus) of 50 to 79%, a pest or weed control at 200 ppm (Colletotricum lagenarium) of 0 to 49% and a pest or weed control at 200 ppm (Erysiphe cichoracaerum) of 80 to 100%. For the same compound, the pest or weed control at 200 ppm [1] was 0 to 49%, the pest or weed control at 200 ppm (Leptosphaeria nodorum) was 50 to 79% and the pest or weed control at 200 ppm (Phytophthora infestans) was 50 to 79%. It also gave a pest or weed control at 200 ppm [2] of 80 to 100%, a pest or weed control at 200 ppm (Magnaporthe grisea) of 80 to 100% and a pest or weed control at 200 ppm (Septoria tritici) of 0 to 49%.

Work on COc1ccc(C(C)Nc2ncnc3scc(Br)c23)cn1 (centres unmarked) [Compound 45, (5-Bromothieno[2,3-d]pyrimidin-4-yl)-[1-(2-methoxypyridin-5-yl)ethyl]amine] yielded a pest or weed control at 200 ppm (Cochliobolus sativus) of 0 to 49%, a pest or weed control at 200 ppm (Colletotricum lagenarium) of 0 to 49% and a pest or weed control at 200 ppm (Erysiphe cichoracaerum) of 80 to 100%. It also gave a pest or weed control at 200 ppm [1] of 80 to 100%, a pest or weed control at 200 ppm (Leptosphaeria nodorum) of 50 to 79% and a pest or weed control at 200 ppm (Phytophthora infestans) of 80 to 100%. It also gave a pest or weed control at 200 ppm [2] of 80 to 100%, a pest or weed control at 200 ppm (Magnaporthe grisea) of 80 to 100% and a pest or weed control at 200 ppm (Septoria tritici) of 50 to 79%.

For CCOC(=O)c1sc2ncnc(NC(C)c3ccc(OC)cc3)c2c1O (centres unmarked) [Compound 52, 5-Hydroxy-4-[1-(4-methoxyphenyl)ethylamino]thieno[2,3-d]pyrimidine-6-carboxylic Acid Ethyl Ester], the pest or weed control at 200 ppm (Cochliobolus sativus) was 0 to 49%, the pest or weed control at 200 ppm (Colletotricum lagenarium) was 0 to 49% and the pest or weed control at 200 ppm (Leptosphaeria nodorum) was 0 to 49%. For the same compound, the pest or weed control at 200 ppm (Phytophthora infestans) was 0 to 49%, the pest or weed control at 200 ppm [2] was 0 to 49% and the pest or weed control at 200 ppm (Magnaporthe grisea) was 0 to 49%. The pest or weed control at 200 ppm (Septoria tritici) was 50 to 79% and the melting point was 151 to 152 °C.
